Test results as given in patent US9282743B2, “Chemical compounds” (Syngenta Participations AG, priority 2011, dated 2016).

What was measured:
[1] = test system: Alopecurus myosuroides (ALOMY); experiment: Example B7: pre application on weeds, ALOMY; type: in vivo; details: 312 h, pre-emergence spray one day after sowing, evaluated after 13 days, read-out: Pre application on weeds, ALOMY (100=total damage to plant; 0=no damage to plant)
Description: (§1) Lolium perenne (LOLPE), Alopecurus myosuroides (ALOMY), Echinochloa crus-galli (ECHCG) and Avena fatua (AVEFA). Activity Against Weeds Seeds of a variety of test species were sown in standard soil in pots. After cultivation for one day under controlled conditions in a glasshouse (at 24/16° C., day/night; 14 hours light; 65% humidity), the plants were sprayed with an aqueous spray solution derived from the formulation of the technical active ingredient in acetone/water (50:50) solution containing 0.5% Tween 20 (polyoxyethelyene sorbitan monolaurate, CAS RN 9005-64-5). The test plants were then grown in a glasshouse under controlled conditions in a glasshouse (at 24/16° C., day/night; 14 hours light; 65% humidity) and watered twice daily. After 13 days, the test was evaluated (100=total damage to plant; 0=no damage to plant).

Lolium perenne (LOLPE) [2] = experiment: Example B6: post application on weeds, LOLPE; type: in vivo; details: 312 h, after 13 days, 100 = total damage, 0 = no damage, read-out: LOLPE damage to plant
Description: as §1, with “8 days” for “one day”

Lolium perenne (LOLPE) [3] = experiment: Example B7: pre application on weeds, LOLPE; type: in vivo; details: 312 h, pre-emergence spray one day after sowing, evaluated after 13 days, read-out: Pre application on weeds, LOLPE (100=total damage to plant; 0=no damage to plant)
Description: as §1

Avena fatua (AVEFA) [4] = experiment: Example B6: post application on weeds, AVEFA; type: in vivo; details: 312 h, after 13 days, 100 = total damage, 0 = no damage, read-out: AVEFA damage to plant
Description: as §1, with “8 days” for “one day”

[5] = test system: Alopecurus myosuroides (ALOMY); experiment: Example B6: post application on weeds, ALOMY; type: in vivo; details: 312 h, after 13 days, 100 = total damage, 0 = no damage, read-out: ALOMY damage to plant
Description: as §1, with “8 days” for “one day”

Avena fatua (AVEFA) [6] = experiment: Example B7: pre application on weeds, AVEFA; type: in vivo; details: 312 h, pre-emergence spray one day after sowing, evaluated after 13 days, read-out: Pre application on weeds, AVEFA (100=total damage to plant; 0=no damage to plant)
Description: as §1

[7] = test system: Echinochloa crus-galli (ECHCG); experiment: Example B6: post application on weeds, ECHCG; type: in vivo; details: 312 h, after 13 days, 100 = total damage, 0 = no damage, read-out: ECHCG damage to plant
Description: as §1, with “8 days” for “one day”

[8] = test system: Echinochloa crus-galli (ECHCG); experiment: Example B7: pre application on weeds, ECHCG; type: in vivo; details: 312 h, pre-emergence spray one day after sowing, evaluated after 13 days, read-out: Pre application on weeds, ECHCG (100=total damage to plant; 0=no damage to plant)
Description: as §1

Winter wheat (TRZAW) = experiment: Example B8: post application on wheat, with and without safener cloquintocet-mexyl; type: in vivo; details: after 13 days, 100 = total damage, 0 = no damage
Description: Application with Safener (Cloquintocet-Mexyl) Winter wheat seeds with a seed treatment of cloquintocet-mexyl applied at a rate of 0.5 g/kg seeds were sown in standard soil in pots. After cultivation for 8 days under controlled conditions in a glasshouse (at 24/16° C., day/night; 14 hours light; 65% humidity), the plants were sprayed with an aqueous spray solution derived from the formulation of the technical active ingredient in acetone/water (50:50) solution containing 0.5% Tween 20 (polyoxyethelyene sorbitan monolaurate, CAS RN 9005-64-5). The test plants were then grown in a glasshouse under controlled conditions in a glasshouse (at 24/16° C., day/night; 14 hours light; 65% humidity) and watered twice daily. After 13 days, the test was evaluated (100=total damage to plant; 0=no damage to plant).

[9] = 250 g/ha + 0.5 g/kg seeds cloquintocet-mexyl

Row | melting point | SMILES | pest or weed control at 250 g/ha [1] [%] | pest or weed control at 250 g/ha (Lolium perenne (LOLPE) [2]) [%] | pest or weed control at 250 g/ha (Lolium perenne (LOLPE) [3]) [%] | pest or weed control at 250 g/ha (Avena fatua (AVEFA) [4]) [%] | pest or weed control at 250 g/ha [5] [%] | pest or weed control at 250 g/ha (Avena fatua (AVEFA) [6]) [%] | pest or weed control at 250 g/ha [7] [%] | pest or weed control at 250 g/ha [8] [%] | TRZAW damage to plant (Winter wheat (TRZAW); 62.5 g/ha + 0.5 g/kg seeds cloquintocet-mexyl) | TRZAW damage to plant (Winter wheat (TRZAW); 62.5 g/ha, without safener) | TRZAW damage to plant (Winter wheat (TRZAW); [9]) | TRZAW damage to plant (Winter wheat (TRZAW); 250 g/ha, without safener)
1 | 138 to 139 °C | CCOC(=O)Oc1c(-c2c(Cl)cc(C)cc2OC)c(=O)n2n1CCN(OC)CC2 [Compound P1.20] | – | – | – | – | – | – | – | – | – | – | – | –
2 | 117 to 118 °C | CCOC(=O)Oc1c(-c2cc(C)c(C)cc2C)c(=O)n2n1CCN(OC)CC2 [Compound P1.21] | – | – | – | – | – | – | – | – | – | – | – | –
3 | 240 °C (dec.) | CCc1cc(C)cc(CC)c1C1C(=O)N2CCN(OC)CCN2C1=O [Compound P2.3, 8-(2,6-Diethyl-4-methyl-phenyl)-3-methoxy-tetrahydro-pyrazolo[1,2-a][1,2,5]triazepine-7,9-dione] | 100 | 100 | 100 | 100 | 100 | 90 | 100 | 100 | 0 | 60 | – | –
4 | 248 to 250 °C | CON1CCN2C(=O)C(c3cc(-c4ccc(Cl)cc4)ccc3C)C(=O)N2CC1 [Compound P2.7] | – | – | – | – | – | – | – | – | – | – | – | –
5 | – | C#Cc1cc(C)c(C2C(=O)N3CCN(OC)CCN3C2=O)c(C)c1 [Compound P2.8] | 80 | 70 | 60 | 40 | 60 | 10 | 60 | 10 | – | – | 10 | 40
6 | – | CON1CCN2C(=O)C(c3c(C)cc(Br)cc3C)C(=O)N2CC1 [Compound P2.9] | 80 | 70 | 80 | 60 | 60 | 20 | 60 | 40 | – | – | 20 | 60
7 | – | CON1CCN2C(=O)C(c3c(Cl)cc(C)cc3Br)C(=O)N2CC1 [Compound P2.10] | 100 | 90 | 100 | 70 | 80 | 60 | 80 | 100 | – | – | 20 | 70
8 | – | CON1CCN2C(=O)C(c3c(C)cc(Cl)cc3Br)C(=O)N2CC1 [Compound P2.11] | 80 | 70 | 80 | 60 | 70 | 50 | 60 | 70 | – | – | 20 | 50
9 | – | COc1cc(C)cc(C)c1C1C(=O)N2CCN(OC)CCN2C1=O [Compound P2.12] | 80 | 80 | 70 | 80 | 80 | 60 | 90 | 60 | – | – | 30 | 70
10 | 171 to 173 °C | CON1CCN2C(=O)C(c3cc(C)c(C)cc3C)C(=O)N2CC1 [Compound P2.19] | – | – | – | – | – | – | – | – | – | – | – | –
11 | 258 to 260 °C | CON1CCN2C(=O)C(c3c(C)cc(-c4ccc(Cl)cc4)cc3C)C(=O)N2CC1 [Compound P2.20] | – | – | – | – | – | – | – | – | – | – | – | –
12 | 292 to 294 °C | CON1CCN2C(=O)C(c3c(C)cc(-c4ccc(F)cc4)cc3C)C(=O)N2CC1 [Compound P2.21] | – | – | – | – | – | – | – | – | – | – | – | –
